According to EP0497091A1, “Bridged cyclic ketal derivatives” (GLAXO GROUP LIMITED, priority 1991, dated 1992):
≈ marks a conversion by molar mass, not a printed value. Where a name gives a salt, the structure may show the parent alone. Read-outs that look alike come from different tables or passages of the source.

Legend:
[1] = system: clinically relevant pathogens; experiment: In vitro antifungal activity, agar plate MIC determination; assay type: cell-based; details: Candida albicans
Description: The in vitro evaluation of the anti-fungal activity of compounds of the invention can be performed by determining the minimum inhibitory concentration (MIC) which is the concentration of the test compound in a suitable medium at which growth of a particular microorganism fails to occur.
[¹⁴C] Squalene was separated from unreacted substrate on thin layer chromatography plates and determined by liquid scintillation counting. Inhibition of squalene synthase was quantified by incubating rat liver homogenate with various concentrations of the test compound in the presence of [2-¹⁴C] farnesylpyrophosphate. The concentration of compound giving 50% inhibition of [¹⁴C] squalene production in a 30 minute assay was taken as the IC₅₀ value. […] In practice, a series of agar plates, each having the test compound incorporated at a particular concentration, was inoculated with a standard culture of a clinically relevant pathogen, for example Candida albicans, and each plate was then incubated at 37 °C for 24 to 48 hours depending on the pathogen.

squalene synthase = molecular target: T1, squalene synthase (Rattus norvegicus, UniProt Q02769); experiment: Inhibition of squalene synthase ([14C]squalene production from [2-14C]farnesylpyrophosphate); assay type: biochemical
T1 construct: from tissue; host or cells: rat liver homogenate
T1 sequence (Q02769 1-416): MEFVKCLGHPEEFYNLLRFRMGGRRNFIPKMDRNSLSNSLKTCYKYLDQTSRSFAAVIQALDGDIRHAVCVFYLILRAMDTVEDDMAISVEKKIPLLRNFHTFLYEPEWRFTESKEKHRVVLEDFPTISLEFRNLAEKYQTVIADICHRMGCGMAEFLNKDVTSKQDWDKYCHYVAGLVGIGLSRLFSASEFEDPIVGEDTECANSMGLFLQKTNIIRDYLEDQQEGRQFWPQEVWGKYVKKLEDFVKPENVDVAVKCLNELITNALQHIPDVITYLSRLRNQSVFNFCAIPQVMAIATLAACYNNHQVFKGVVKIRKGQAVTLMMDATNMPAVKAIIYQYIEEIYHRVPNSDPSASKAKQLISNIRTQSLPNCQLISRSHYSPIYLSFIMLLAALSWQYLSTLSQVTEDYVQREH
From the text: A. Biller et al. in J. […] [¹⁴C]squalene is separated from unreacted substrate on thin layer chromatography plates and determined by liquid scintillation counting. […] Acta, Volume 877, 50-60 (1986) and modified to include measurement of cholesterol by high performance liquid chromatography (h.p.l.c.). […] A. […] [¹⁴C] Squalene was separated from unreacted substrate on thin layer chromatography plates and determined by liquid scintillation counting. Inhibition of squalene synthase was quantified by incubating rat liver homogenate with various concentrations of the test compound in the presence of [2-¹⁴C] farnesylpyrophosphate. The concentration of compound giving 50% inhibition of [¹⁴C] squalene production in a 30 minute assay was taken as the IC₅₀ value.

[2] = rat liver homogenate, [2-¹⁴C] farnesylpyrophosphate as substrate, 50% inhibition of [¹⁴C] squalene production in a 30 minute assay, read-out: IC₅₀

Structure (SMILES)	MIC [1] [µg/mL]	IC50 (squalene synthase) [nM]	IC50 (squalene synthase; [2]) [nM]
C=C(CC[C@]12O[C@H](C(=O)O)[C@@](O)(C(=O)O)[C@](C(=O)O)(O1)[C@H](OC(=O)OCCCCCCCCC)[C@H]2O)[C@@H](OC(C)=O)[C@H](C)Cc1ccccc1 (relative stereo) [Example 57, [1S-[1α(4R*,5S*),3α,4β.5α,6α,7β]] 1-(4-Acetyloxy-5-methyl-3-methylene-6-phenylhexyl)-4,7-dihydroxy-6-[(nonoxycarbonyl)oxy]-2,8-dioxabicyclo[3.2.1]octane-3,4,5-tricarboxylic acid]	0.1 to 31 (≈ 0.141 to 43.7 µM)	< 100	
C=C(CCC12OC(C(=O)O)C(O)(C(=O)O)C(C(=O)O)(O1)C(OC(=O)C=CC(C)CC(C)CC)C2OC(C)=O)C(OC(C)=O)C(C)Cc1ccccc1 (stereo not drawn) [Example 24, [1S-[1α(4R*,5S*),3α,4β,5α,6α(2E,4R*,6R*),7β]] 7-Acetyloxy-1-(4-acetyloxy-5-methyl-3-methylene-6-phenylhexyl)-4,6-dihydroxy-2,8-dioxabicyclo[3.2.1]octane-3,4,5-tricarboxylic acid, 6-(4,6-dimethyl-2-octenoate)]	0.1 to 31 (≈ 0.136 to 42.3 µM)	< 100	
CC[C@H](C)C[C@H](C)CCC(=O)O[C@@H]1[C@@H](O)[C@@]2(CCC(C)[C@@H](O)[C@H](C)Cc3ccccc3)O[C@H](C(=O)O)[C@@](O)(C(=O)O)[C@]1(C(=O)O)O2 (relative stereo) [Example 13, [1S-[1α(3R*S*,4S*,5S*),3α,4β,5α,6α(4S*,6R*),7β]] 1-(3,5-Dimethyl-4-hydroxy-6-phenylhexyl)-4,6,7-trihydroxy-2,8-dioxabicyclo[3.2.1]octane-3,4,5-tricarboxylic acid, 6-(4,6-dimethyloctanoate)]	0.1 to 31 (≈ 0.153 to 47.5 µM)		
C=C(CC[C@]12O[C@H](C(=O)O)[C@@](O)(C(=O)O)[C@](C(=O)O)(O1)[C@H](OC(=O)CC13CC4CC(CC(C4)C1)C3)[C@H]2O)[C@@H](OC(C)=O)[C@H](C)Cc1ccccc1 (relative stereo) [Example 45, [1S-[1α(4R*,5S*),3α,4β,5α,6α,7β]] 1-(4-Acetyloxy-5-methyl-3-methylene-6-phenylhexyl)-4,6,7-trihydroxy-2,8-dioxabicyclo[3.2.1]octane-3,4,5-tricarboxylic acid, 6-[1-(tricyclo[3.3.1.1^3,7]decyl)acetate]]	0.1 to 31 (≈ 0.14 to 43.4 µM)	< 100	
C=C(CC[C@]12O[C@H](C(=O)O)[C@@](O)(C(=O)O)[C@](C(=O)O)(O1)[C@H](OC(=O)CCCCCCc1ccccc1)[C@H]2O)[C@@H](OC(C)=O)[C@H](C)Cc1ccccc1 (relative stereo) [Example 39, [1S-[1α(4R*,5S*)3α,4β,5α,6α,7β]] 1-(4-Acetyloxy-5-methyl-3-methylene-6-phenylhexyl)-4,6,7-trihydroxy-2,8-dioxabicyclo[3.2.1]octane-3,4,5-tricarboxylic acid, 6-(7-phenylheptanoate)]	0.1 to 31 (≈ 0.138 to 42.7 µM)	< 100	
CCC(C)CC(C)CCC(=O)OC1C(O)C2(CCC(C)=CC(C)Cc3ccccc3)OC(C(=O)O)C(O)(C(=O)O)C1(C(=O)O)O2 (mixture of isomers) [Example 15, [1S-[1α[(Z/E),5S*],3α,4β,5α,6α(4S*6R*),7β]] 1-(3,5-Dimethyl-6-phenyl-3-hexenyl)-4,6,7-trihydroxy-2,8-dioxabicyclo[3.2.1]octane-3,4,5-tricarboxylic acid, 6-(4,6-dimethyloctanoate)]		< 100	
C=C(CCC12OC(C(=O)O)C(OC(C)=O)(C(=O)O)C(C(=O)O)(O1)C(OC(=O)C=CC(C)CC(C)CC)C2OC(C)=O)C(OC(C)=O)C(C)Cc1ccccc1 (stereo not drawn) [Example 25, [1S-[1α(4R*,5S*),3α,4β,5α,6α(2E,4R*,6R*),7β]] 1-(4-Acetyloxy-5-methyl-3-methylene-6-phenylhexyl)-4,7-diacetyloxy-6-hydroxy-2,8-dioxabicyclo[3.2.1]octane-3,4,5-tricarboxylic acid, 6-(4,6-dimethyl-2-octenoate)]		< 100	
C=C(CC[C@]12O[C@H](C(=O)O)[C@@](O)(C(=O)O)[C@](C(=O)O)(O1)[C@H](OC(=O)OCCCC)[C@H]2O)[C@@H](OC(C)=O)[C@H](C)Cc1ccccc1 (relative stereo) [Example 60, [1S-[1α(4R*,5S*)3α,4β,5α,6α,7β]] 1-(4-Acetyloxy-5-methyl-3-methylene-6-phenylhexyl)-6-[(butoxycarbonyl)oxy]-4,7-dihydroxy-2,8-dioxabicyclo[3.2.1]octane-3,4,5-tricarboxylic acid]		< 100	
CC[C@H](C)C[C@H](C)/C=C/C(=O)O[C@@H]1[C@@H](O)[C@@]2(C/C=C(\C)C[C@H](C)Cc3ccccc3)O[C@H](C(=O)O)[C@@](O)(C(=O)O)[C@]1(C(=O)O)O2 (relative stereo) [Example 9, [1S-[1α[(E),5R*],3α,4β,5α,6α(2E,4R*,6R*),7β]] 1-(3,5-Dimethyl-6-phenyl-2-hexenyl)-4,6,7-trihydroxy-2,8-dioxabicyclo[3.2.1]octane-3,4,5-tricarboxylic acid, 6-(4,6-dimethyl-2-octenoate)]		< 100	
C=C(CC[C@]12O[C@H](C(=O)O)[C@@](O)(C(=O)O)[C@](C(=O)O)(O1)[C@H](OC(=O)NC)[C@H]2O)[C@@H](OC(C)=O)[C@H](C)Cc1ccccc1 (relative stereo) [Example 67, [1S-[1α(4R*,5S*),3α,4β,5α,6α,7β]] 1-(4-Acetyloxy-5-methyl-3-methylene-6-phenylhexyl)-4,7-dihydroxy-6-[[(methylamino)carbonyl]oxy]-2,8-dioxabicyclo[3.2.1]octane-3,4,5-tricarboxylic acid]		< 100	
C=C(CCC12OC(C(=O)O)C(O)(C(=O)O)C(C(=O)O)(O1)C(OC(=O)CCCCC(C)=O)C2O)C(OC(C)=O)C(C)Cc1ccccc1 (stereo not drawn) [Example 53, [1S-[1α(4R*,5S*),3α,4β,5α,6α,7β]] 1-(4-Acetyloxy-5-methyl-3-methylene-6-phenylhexyl)-4,6,7-trihydroxy-2,8-dioxabicyclo[3.2.1]octane-3,4,5-tricarboxylic acid, 6-(6-oxo-heptanoate)]			< 100
CC[C@H](C)C[C@H](C)/C=C/C(=O)O[C@@H]1[C@@H](O)[C@@]2(C/C=C(\C)C(=O)[C@H](C)Cc3ccccc3)O[C@H](C(=O)O)[C@@](O)(C(=O)O)[C@]1(C(=O)O)O2 (relative stereo) [Example 2, [1S-[1α[(E),5S*],3α,4β,5α,6α(2E,4R*,6R*),7β]] 1-(3,5-Dimethyl-4-oxo-6-phenyl-2-hexenyl)-4,6,7-trihydroxy-2,8-dioxabicyclo[3.2.1]octane-3,4,5-tricarboxylic acid, 6-(4,6-dimethyl-2-octenoate)]		< 100	
CCC(C)CC(C)CCC(=O)OC1C(O)C2(CCCC(=O)C(C)Cc3ccccc3)OC(C(=O)O)C(O)(C(=O)O)C1(C(=O)O)O2 (stereo not drawn) [Example 20, [1S-[1α(5R*S*),3α,4β,5α,6α(4S*,6R*),7β]] 1-(5-Methyl-4-oxo-6-phenylhexyl)-4,6,7-trihydroxy-2,8-dioxabicyclo[3.2.1]octane-3,4,5-tricarboxylic acid, 6-(4,6-dimethyloctanoate)]		< 100	
C=C(CC[C@]12O[C@H](C(=O)O)[C@@](O)(C(=O)O)[C@](C(=O)O)(O1)[C@H](OC(=O)CCCC(C)=O)[C@H]2O)[C@@H](OC(C)=O)[C@H](C)Cc1ccccc1 (relative stereo) [Example 51, [1S-[1α(4R*,5S*),3α,4β,5α,6α,7β]] 1-(4-Acetyloxy-5-methyl-3-methylene-6-phenylhexyl)-4,6,7-trihydroxy-2,8-dioxabicyclo[3.2.1]octane-3,4,5-tricarboxylic acid, 6-(5-oxo-hexanoate)]		< 100	
CCC(C)CC(C)CCC(=O)OC1C(O)C2(CCC(C)C(=O)C(C)Cc3ccccc3)OC(C(=O)O)C(O)(C(=O)O)C1(C(=O)O)O2 (single isomer, unassigned; isomer 1) [isomer 1 in Example 16, [1S-[1α(3R*(S*),5S*),3α,4β,5α,6α(4S*,6R*),7β]] 1-(3,5-Dimethyl-4-oxo-6-phenylhexyl)-4,6,7-trihydroxy-2,8-dioxabicyclo[3.2.1]octane-3,4,5-tricarboxylic acid, 6-(4,6-dimethyloctanoate), 3,4,5-tripotassium salt]			< 100
C=C(CC[C@]12O[C@H](C(=O)O)[C@@](O)(C(=O)O)[C@](C(=O)O)(O1)[C@H](OC(=O)C1CCCCC1)[C@H]2O)[C@@H](OC(C)=O)[C@H](C)Cc1ccccc1 (relative stereo) [Example 43, [1S-[1α(4R*,5S*),3α,4β,5α,6α,7β]] 1-(4-Acetyloxy-5-methyl-3-methylene-6-phenylhexyl)-4,6,7-trihydroxy-2,8-dioxabicyclo[3.2.1]octane-3,4,5-tricarboxylic acid, 6-(cyclohexanecarboxylate)]		< 100	
